The values that follow come from patent US20150057316A1, “NOVEL SULFONATE-BASED TRIMEBUTINE SALTS” (GICARE PHARMA INC., priority 2012, published 2015).

Structures can show the parent of a compound that is named as a salt. Where two headings read alike, the source gives them in different places.

A short description of data set [1]: solid-state stability of trimebutine salts of carboxylic acids. To be noted: 1:1 molar ratio; salts dissociate with heat and/or time.
Another data set has as its system Sprague-Dawley rats. Nature of the data set: p.o. pharmacokinetic study in rats, toxicological assessment. The note with it: single dose of 230 and 460 mg/kg p.o. Format: in vivo. The protocol: In order to evaluate the absolute bioavailability of trimebutine 4-toluenesulfonate (Example 22), an in-vivo pharmacological study was carried out in 6 Sprague-Dawley rats, which were administered a single dose of 230 and 460 mg/kg of the compound by the oral gavage route (p.o.). During this study, assessments included mortality checks and clinical observations. Blood samples were also collected for pharmacokinetic evaluations at 10 time points.

The nature of data set [2]: Caco-2 bidirectional permeability. Format: in vitro ADME, human. The note with it: human; for efflux ratio at 2 h: (Papp B − A)/(Papp A − B). From the text: (§1) Such a procedure helps understanding the suitability of the compound for oral dosing by measuring the rate of transport of the molecule across the Caco-2 cells, which have characteristics that resemble intestinal epithelial cells. Transport in both directions (apical to basolateral (A-B) and basolateral to apical (B-A)) across the cell monolayer was monitored over a 2-hr time period in order to evaluate the efflux ratio, an indicator of whether the compound undergoes significant active efflux or not. The permeability coefficient (Papp) is calculated from the equation: […]
(§2) Where dQ/dt is the rate of permeation of the drug across the cells, Co is the donor compartment concentration at time zero and A is the area of the cell monolayer. Co is obtained from analysis of the dosing solution at the start of the experiment. The analysis method used was LCMS quantification.
(§3) A permeability of (Papp A-B)<1.0×10^−6 cm/s is considered low, whereas a permeability of (Papp A-B)>1.0×10^−6 cm/s is considered high. A significant efflux is generally associated with an efflux ratio above 3.0 and a (Papp B-A)>1.0×10^−6 cm/s in these assay conditions.
A general note: Caco-2 monolayers are a common model of the intestinal barrier.

A further data set deals with Caco-2 cells. Kind of data set: Caco-2 bidirectional permeability. The class given is in vitro ADME, human. To be noted: for Permeability: class from Papp A-B; for Significant Efflux: significant: efflux ratio above 3.0 and Papp B-A >1.0×10^−6 cm/s; for Efflux ratio: (Papp B − A)/(Papp A − B); for % Recovery A − B / Papp A − B: apical to basolateral; for % Recovery A − B / Papp A − B / % Recovery B − A / Papp B − A: 2-hr; for % Recovery B − A / Papp B − A: basolateral to apical.
Description: as §1, §2, §3

For the next data set, the system named is rat hepatocytes. Kind of data set: in-vitro metabolism over rat hepatocytes. To be noted: 10 μM, up to 120 min at 37° C.
A further data set relates to dog hepatocytes. Nature of the data set: in-vitro metabolism over dog hepatocytes. To be noted: 10 μM, up to 120 min at 37° C.
For another data set, the system named is human hepatocytes. Nature of the data set: in-vitro metabolism over human hepatocytes. To be noted: 10 μM, up to 120 min at 37° C.
Data set [3] in a line: quantification of counter-ion and metabolites in urine and feces of rats. The note with it: 500 mg/kg p.o., 48 hr collection. The class given is in vivo. The protocol:
A preliminary toxicological evaluation of the compound was done in 250-300 g male Sprague-Dawley rats. Animals were randomized into one of three dosing group, i.e. 250, 500 or 1,000 mg/kg administered by oral gavage. Following administration of the test article, animals were observed hourly for the first 8 hr post-dosing for clinical signs and twice daily thereafter until termination on Day 7. Three animals per group were sacrificed by exsanguination under general anesthesia at 24-hr post dosing or on Day 7 and a gross necropsy was performed in all animals. Additionally, all three rats having received the 500 mg/kg dose and scheduled for sacrifice on Day 7 were placed in individual metabolic cages immediately following test article administration, in order to collect feces and urine during 48 hr. Blood samples were collected terminally from each rat for hematology and serum chemistry evaluation.
After proper urine and feces samples preparation, trimebutine 3-thiocarbamoyl-benzenesulfonate and its two metabolites were assayed by HPLC-MS/MS (ESI-), in MRM mode. Calibration curves were prepared for each analyte, in both matrices (diluted blank urine and diluted blank feces).

For data set [4] the following is noted: cited from earlier work.
The target of a further data set is kappa-opioid receptors (Cavia porcellus, UniProt P41144). To be noted: cited from earlier work.
Sequence of kappa-opioid receptors (P41144 whole entry): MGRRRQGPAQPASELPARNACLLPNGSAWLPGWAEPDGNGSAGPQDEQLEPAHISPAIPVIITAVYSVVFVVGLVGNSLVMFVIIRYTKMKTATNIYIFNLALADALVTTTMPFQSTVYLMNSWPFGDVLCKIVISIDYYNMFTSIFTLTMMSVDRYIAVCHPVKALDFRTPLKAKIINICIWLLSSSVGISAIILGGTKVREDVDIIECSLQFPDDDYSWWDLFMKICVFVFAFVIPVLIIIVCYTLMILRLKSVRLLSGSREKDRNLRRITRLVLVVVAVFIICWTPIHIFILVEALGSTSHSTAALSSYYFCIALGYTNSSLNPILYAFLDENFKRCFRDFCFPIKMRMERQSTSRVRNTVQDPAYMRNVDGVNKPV
The test system of a further data set is mu-opioid receptors. The note with it: cited from earlier work.
The conditions of data set [5]: 100 μM, 37° C.; simulated gastric fluid pH 1.2 up to 60 min, simulated intestinal fluid pH 6.8 and acetate buffer pH 5 up to 180 min. The procedure:
Pyridinium 3-thiocarbamoyl-benzenesulfonate and pyridinium 4-thiocarbamoyl-benzenesulfonate (100 μM) were separately incubated at 37° C. in simulated gastric fluid (pH 1.2; without pepsin) up to 60 min, in simulated intestinal fluid (pH 6.8, without procreatin) up to 180 min, and in acetate buffer (pH 5) up to 180 min. At time points of 0, 30, 60, 120 and 180 min, an aliquot of 10 μL of samples were removed and added into vials containing […] internal standard (labetalol) in a mixture of 25:75 acetonitrile:water. Samples were analyzed by HPLC-MS/MS (ESI-, MRM) to monitor disappearance of its counter-ion over the time.

Setting [6] is: Caco-2, apical to basolateral, 2-hr, read-out: % Recovery A − B.
Setting [7] is: Caco-2, apical to basolateral, 2-hr, read-out: Papp A − B.
[8] abbreviates: Caco-2, class from Papp A-B, read-out: Permeability.
The mark [9] stands for this setting: Caco-2, basolateral to apical, 2-hr.
The mark [10] stands for this setting: Caco-2, basolateral to apical, 2-hr, read-out: % Recovery B − A.

A word on the melting point: it is the temperature, or range, at which the solid turns liquid. What is called efflux ratio is the permeability from basolateral to apical divided by that in the opposite direction, in the common usage. Usually Papp B→A stands for how fast a substance crosses the layer from the basolateral side. Broadly, the pKa is the pH at which an ionisable group is half protonated.

Description for dog hepatocytes: (§4) Human, dog and rat cryopreserved hepatocytes (Celsis-IVT; n=10 pooled donors) were thawed according to the recommended protocol of the cell provider. Cells were then diluted to 1 million viable cells per mL, plated in a 96-well plate (100 μL per well), and pre-incubated 20 min at 37° C. under 95:5 O2:CO2 atmosphere. Following addition of test compounds (10 μM; 1 μL of 1 mM stock solution (95:5 acetonitrile/DMSO) per well), cells were incubated with lid on up to 120 min at 37° C. under 95:5 O2:CO2 atmosphere. At time points 0, 15, 60 and 120 min, 100 μL of acetonitrile containing an internal standard (1 μM labetalol) was added to quench incubates, and the plate was centrifuged (5 min; 15K rpm). Supernatant was diluted 1:2 with water and analyzed by HPLC-MS/MS (ESI-). The MS2 scan mode was used instead of the MRM mode, in order to manually extract the Extracted Ion Current (EIC) of two potential metabolites: 3-cyanobenzenesulfonate and sodium 3-sulfobenzoate.
Description for human hepatocytes: as §4
Description for rat hepatocytes: as §4

With `O=C(O)c1ccccc1` [benzoic acid], in data set [1], the “stability of the trimebutine salt in the solid state” value is given as “unstable salt”.

In turn, `NC(=O)c1cccc(S(=O)(=O)O)c1` (as salt: potassium) yielded a melting point of 223 °C.

Turning to `CCC(COC(=O)c1cc(OC)c(OC)c(OC)c1)(c1ccccc1)N(C)C` (centres unmarked) [Example 22, trimebutine 4-toluenesulfonate salt], in the data set on Sprague-Dawley rats, the bodyweight entry is “no change in bodyweight”, the death entry was “no death reported” and the toxicity result was “no indication of any toxicity”. The recovery at 2 h in data set [2] (setting [6]) worked out at 58%. In addition, in data set [2] (setting [7]), the Papp A→B at 2 h worked out at 23.9 ×10⁻⁶ cm/s. In data set [2] (setting [8]), the Papp A→B at 2 h is over 1 ×10⁻⁶ cm/s. Further, the efflux ratio at 2 h in data set [2] (Caco-2) came to 0.9. The compound further yielded a Papp B→A at 2 h in data set [2] (setting [9]) of 21.7 ×10⁻⁶ cm/s. Besides, the recovery at 2 h in [2] (setting [10]) worked out at 76%. For the same compound, in the data set on Caco-2 cells, the Permeability result is listed as “high” and the “Significant Efflux” value is given as “No”.

As for “pyridinium 3-cyanobenzenesulfonate [Pyridinium 3-cyano-benzenesulfonate]”, in the data set with Caco-2 cells, the Efflux ratio was found to be 2.0, the “% Recovery A − B” value is on record as 84%, the “Papp A − B” value was determined as 0.44 ×10⁻⁶ cm/s and the “% Recovery B − A” value is recorded as 72%. Moreover, in the data set with Caco-2 cells, the “Papp B − A” value was 0.87 ×10⁻⁶ cm/s, the Permeability result is “Low (A permeability of (Papp A-B)<1.0×10^−6 cm/s is considered low)” and the “Significant Efflux” value was “No”.

As to `NC(=S)c1cccc(S(=O)(=O)O)c1`, in the data set with rat hepatocytes, the metabolic stability result was “remained intact”. Further, the metabolic stability entry in the data set with dog hepatocytes is “remained intact”. The metabolic stability result in the data set on human hepatocytes is given as “remained intact”. Further, in the data set on Caco-2 cells, the Efflux ratio was 1.2, the “% Recovery A − B” value is listed as 63%, the “Papp A − B” value worked out at 0.28 ×10⁻⁶ cm/s and the “% Recovery B − A” value worked out at 82%. Moreover, in the data set with Caco-2 cells, the “Papp B − A” value came out at 0.33 ×10⁻⁶ cm/s, the Permeability entry is “Low (A permeability of (Papp A-B)<1.0×10^−6 cm/s is considered low)” and the “Significant Efflux” value was “No”. Besides, in [3], the “3-cyanobenzenesulfonate found in feces, share of administered dose” value is “about 4%”; the “3-sulfobenzoate found, share of administered dose” value was found to be 0.3%; the “share of total counter-ion administered orally found in feces” value was “About 80%”; the “share of total counter-ion administered orally found in urine” value is on record as about 20%.

Regarding `O=S(=O)(O)c1cccnc1` [Example 8, 3-Pyridinesulfonic acid], the melting point was found to be 119 °C.

The compound `N#Cc1cccc(S(=O)(=O)O)c1` [Example 14, 3-Cyano benzenesulfonic acid] registered a melting point of 129 °C.

`NC(=S)c1ccc(C(=O)O)cc1` [4-thiocarbamoylbenzoic acid]: the pKa in [4] was about 3.3. Also, in [1], the “stability of the trimebutine salt in the solid state” value is given as “unstable salt”.

Consider `CCC(COC(=O)c1cc(OC)c(OC)c(OC)c1)(c1ccccc1)N(C)C` (centres unmarked) [Trimebutine, 3,4,5-trimethoxybenzoic acid 2-(dimethylamino)-2-phenylbutylester], for which the metabolic stability entry in the data set on rat hepatocytes, with dog hepatocytes and in the data set on human hepatocytes was “capable of metabolizing trimebutine” each time. The pKa in data set [4] is reported as about 6.25. Also, the “affinity to kappa-opioid receptors” value at kappa-opioid receptors is listed as “micromolar”. Also, the “affinity to mu-opioid receptors” value with mu-opioid receptors was “micromolar”.

As to `O=C([O-])c1cccc(S(=O)(=O)O)c1.[Na+]` [Sodium 3-sulfobenzoate, reference compound], the recovery at 2 h was determined as 93% in [2] (setting [6]) and 115% in data set [2] (setting [10]). Moreover, the values for the Papp A→B at 2 h in [2] (setting [7]) and in [2] (setting [8]) were 0.59 ×10⁻⁶ cm/s and under 1 ×10⁻⁶ cm/s, respectively. In addition, in [2] (Caco-2), the efflux ratio at 2 h is 1. This compound also returned a Papp B→A at 2 h in [2] (setting [9]) of 0.59 ×10⁻⁶ cm/s. Moreover, the “Significant Efflux” value in the data set on Caco-2 cells is on record as “No”.

`CCC(COC(=O)c1cc(OC)c(OC)c(OC)c1)(c1ccccc1)N(C)C` (centres unmarked): in the data set with Caco-2 cells, the Efflux ratio is reported as 1.0, the “% Recovery A − B” value stood at 51%, the “Papp A − B” value is 23.2 ×10⁻⁶ cm/s and the “% Recovery B − A” value worked out at 62%. Also, in the data set with Caco-2 cells, the “Papp B − A” value came to 24.3 ×10⁻⁶ cm/s and the Permeability result is given as “High (a permeability of (Papp A-B)>1.0×10^−6 cm/s is considered high)”.

As to “pyridinium 4-thiocarbamoylbenzenesulfonate”, the “stability of counter-ion (disappearance over time)” value in [5] is “stable in all these media”. Also, in the data set on Caco-2 cells, the “% Recovery A − B” value was determined as 106%, the “Papp A − B” value was under 0.54 ×10⁻⁶ cm/s, the “% Recovery B − A” value came out at 116% and the “Papp B − A” value is under 0.68 ×10⁻⁶ cm/s. Further, in the data set on Caco-2 cells, the Permeability result is “Low (A permeability of (Papp A-B)<1.0×10^−6 cm/s is considered low)” and the “Significant Efflux” value was “No”.

Consider `O=S(=O)(O)c1ccccn1` [Example 7, 2-Pyridinesulfonic acid], for which the melting point was 131 °C.
